Laboratory results: the supplement of paper PMC10307832

Each cell line was assayed with CC1=C(C(=NN1)C)CC2=C(C3=C(S2)N(C(=O)N(C3=O)C)CC(C)C)C(=O)N4C[C@@H](CO4)O + Cc1nc(NC(=O)N2CCC[C@H]2C(N)=O)sc1-c1ccnc(C(C)(C)C(F)(F)F)c1 [Alpelisib] (partner 2 µM) (assay: relative viability (nuclei count vs DMSO), 5 days (fraction); higher = more cells survive). Details: first compound 0.0025 µM.
Outline: (§1)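 The day after seeding in 1536-well plates, lung cancer cell lines were treated by pin tool with a single drug, or with a fixed anchor-drug dose together with five library-drug doses (not always all listed) in √10 steps. After 5 days, a combined fix-and-stain solution (final 0.05% Triton X-100, 1% formaldehyde, 1 ug/ml Hoechst) was added. Nuclei counted on 4× images gave relative viability as treated counts over vehicle counts, reported as the median of duplicate plates.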

Cell Line | relative viability
NCI-H1755 | 0.963
NCI-H2023 | 0.621
HCC-15 | 0.953
NCI-H1793 | 0.724
PC-14 | 1.05
EKVX | 0.906
LC-2-ad | 0.985
NCI-H1944 | 0.858
NCI-H1975 | 0.668
RERF-LC-KJ | 0.977
NCI-H358 | 0.893
NCI-H650 | 1.28
PC-3 [JPC-3] | 1.02

Same assay, conditions: first compound 0.007906 µM

Cell Line | relative viability
NCI-H1755 | 1.03
NCI-H2023 | 0.635
HCC-15 | 0.914
NCI-H1793 | 0.826
PC-14 | 0.877
EKVX | 1.07
LC-2-ad | 0.85
NCI-H1944 | 0.858
NCI-H1975 | 0.538
RERF-LC-KJ | 0.939
NCI-H358 | 0.906
NCI-H650 | 1.11
PC-3 [JPC-3] | 1.03

Same assay, conditions: first compound 0.025 µM

Cell Line | relative viability
NCI-H1755 | 0.898
NCI-H2023 | 0.593
HCC-15 | 0.901
NCI-H1793 | 0.546
PC-14 | 0.886
EKVX | 0.835
LC-2-ad | 0.842
NCI-H1944 | 0.921
NCI-H1975 | 0.723
RERF-LC-KJ | 0.92
NCI-H358 | 0.78
NCI-H650 | 0.972
PC-3 [JPC-3] | 1

Same assay, conditions: first compound 0.07906 µM

Cell Line | relative viability
NCI-H1755 | 0.849
NCI-H2023 | 0.58
HCC-15 | 0.854
NCI-H1793 | 0.554
PC-14 | 0.974
EKVX | 0.923
LC-2-ad | 0.897
NCI-H1944 | 0.847
NCI-H1975 | 0.719
RERF-LC-KJ | 0.775
NCI-H358 | 0.903
NCI-H650 | 1
PC-3 [JPC-3] | 1.01

Same assay, conditions: first compound 0.25 µM

Cell Line | relative viability
NCI-H1755 | 1.02
NCI-H2023 | 0.622
HCC-15 | 0.942
NCI-H1793 | 0.742
PC-14 | 0.975
EKVX | 0.734
LC-2-ad | 0.921
NCI-H1944 | 0.761
NCI-H1975 | 0.745
RERF-LC-KJ | 0.964
NCI-H358 | 1.04
NCI-H650 | 1.18
PC-3 [JPC-3] | 1.06

These cell lines were tested with Cc1ccccc1C(C(=O)NC1CCCCC1)N(C(=O)Cn1ccnc1C)c1cccc(F)c1 [IDH-C35] + CC(=O)Nc1cccc(-n2c(=O)n(C3CC3)c(=O)c3c(Nc4ccc(I)cc4F)n(C)c(=O)c(C)c32)c1 [Trametinib] (partner 0.02 µM) in the same assay as above. Details: first compound 0.08 µM.
Outline: as §1

Cell Line | relative viability
NCI-H1755 | 0.754
NCI-H2023 | 0.476
HCC-15 | 0.37
NCI-H1793 | 0.42
PC-14 | 0.645
EKVX | 0.398
LC-2-ad | 0.87
NCI-H1944 | 0.392
NCI-H1975 | 0.384
RERF-LC-KJ | 0.846
NCI-H358 | 0.132
NCI-H650 | 1.03
PC-3 [JPC-3] | 0.65

Same assay, conditions: first compound 0.253 µM

Cell Line | relative viability
NCI-H1755 | 0.735
NCI-H2023 | 0.503
HCC-15 | 0.395
NCI-H1793 | 0.45
PC-14 | 0.695
EKVX | 0.279
LC-2-ad | 0.923
NCI-H1944 | 0.421
NCI-H1975 | 0.363
RERF-LC-KJ | 0.831
NCI-H358 | 0.152
NCI-H650 | 0.935
PC-3 [JPC-3] | 0.745

Same assay, conditions: first compound 0.8 µM

Cell Line | relative viability
NCI-H1755 | 0.762
NCI-H2023 | 0.548
HCC-15 | 0.428
NCI-H1793 | 0.374
PC-14 | 0.735
EKVX | 0.37
LC-2-ad | 0.954
NCI-H1944 | 0.42
NCI-H1975 | 0.323
RERF-LC-KJ | 0.868
NCI-H358 | 0.128
NCI-H650 | 0.861
PC-3 [JPC-3] | 0.725

Same assay, conditions: first compound 2.53 µM

Cell Line | relative viability
NCI-H1755 | 0.73
NCI-H2023 | 0.528
NCI-H1793 | 0.472
PC-14 | 0.768
EKVX | 0.353
LC-2-ad | 0.874
NCI-H1944 | 0.332
NCI-H1975 | 0.345
RERF-LC-KJ | 0.904
NCI-H358 | 0.159
PC-3 [JPC-3] | 0.758

Same assay, conditions: first compound 8 µM

Cell Line | relative viability
NCI-H1755 | 0.675
NCI-H2023 | 0.475
HCC-15 | 0.371
NCI-H1793 | 0.401
PC-14 | 0.705
EKVX | 0.277
LC-2-ad | 0.905
NCI-H1944 | 0.393
NCI-H1975 | 0.32
RERF-LC-KJ | 0.779
NCI-H358 | 0.144
NCI-H650 | 0.914
PC-3 [JPC-3] | 0.67

These cell lines were tested with Cc1ccccc1C(C(=O)NC1CCCCC1)N(C(=O)Cn1ccnc1C)c1cccc(F)c1 [IDH-C35] + CCNC(=O)c1noc(-c2cc(C(C)C)c(O)cc2O)c1-c1ccc(CN2CCOCC2)cc1 [Luminespib] (partner 0.01 µM) in the same assay as above. Details: first compound 0.08 µM.
Outline: as §1

Cell Line | relative viability
NCI-H1755 | 0.535
NCI-H2023 | 0.617
HCC-15 | 0.246
NCI-H1793 | 0.159
PC-14 | 0.148
EKVX | 0.93
LC-2-ad | 1.05
NCI-H1944 | 0.79
NCI-H1975 | 0.165
RERF-LC-KJ | 1.21
NCI-H358 | 0.526
NCI-H650 | 0.783
PC-3 [JPC-3] | 0.737

Same assay, conditions: first compound 0.253 µM

Cell Line | relative viability
NCI-H1755 | 0.365
NCI-H2023 | 0.769
HCC-15 | 0.251
NCI-H1793 | 0.215
PC-14 | 0.154
EKVX | 0.908
LC-2-ad | 1.04
NCI-H1944 | 0.715
NCI-H1975 | 0.244
RERF-LC-KJ | 1.34
NCI-H358 | 0.388
NCI-H650 | 0.766
PC-3 [JPC-3] | 0.596

Same assay, conditions: first compound 0.8 µM

Cell Line | relative viability
NCI-H1755 | 0.454
NCI-H2023 | 0.854
HCC-15 | 0.178
NCI-H1793 | 0.255
PC-14 | 0.177
EKVX | 0.822
LC-2-ad | 0.962
NCI-H1944 | 0.656
NCI-H1975 | 0.206
RERF-LC-KJ | 1.22
NCI-H358 | 0.283
NCI-H650 | 0.79
PC-3 [JPC-3] | 0.728

Same assay, conditions: first compound 2.53 µM

Cell Line | relative viability
NCI-H1755 | 0.412
NCI-H2023 | 0.722
PC-14 | 0.243
EKVX | 0.842
NCI-H1944 | 0.681
NCI-H1975 | 0.276
RERF-LC-KJ | 1.17
NCI-H358 | 0.26
PC-3 [JPC-3] | 0.771

Same assay, conditions: first compound 8 µM

Cell Line | relative viability
NCI-H1755 | 0.715
NCI-H2023 | 0.506
HCC-15 | 0.314
NCI-H1793 | 0.184
PC-14 | 0.198
EKVX | 0.845
LC-2-ad | 0.939
NCI-H1944 | 0.763
NCI-H1975 | 0.135
RERF-LC-KJ | 1.19
NCI-H358 | 0.242
NCI-H650 | 0.799
PC-3 [JPC-3] | 0.692

What follows are cell lines tested with Cc1ccccc1C(C(=O)NC1CCCCC1)N(C(=O)Cn1ccnc1C)c1cccc(F)c1 [IDH-C35] + C[C@]1(O)C[C@@H](c2nc(-c3ccc4ccc(-c5ccccc5)nc4c3)c3c(N)nccn32)C1 [Linsitinib] (partner 1 µM) in the same assay as above. Details: first compound 0.08 µM.
Outline: as §1

Cell Line | relative viability
NCI-H1755 | 0.952
NCI-H2023 | 0.719
HCC-15 | 0.866
NCI-H1793 | 0.908
PC-14 | 0.967
EKVX | 1.05
LC-2-ad | 0.867
NCI-H1944 | 1.07
NCI-H1975 | 0.854
RERF-LC-KJ | 0.873
NCI-H358 | 0.746
NCI-H650 | 1.09
PC-3 [JPC-3] | 0.939

Same assay, conditions: first compound 0.253 µM

Cell Line | relative viability
NCI-H1755 | 0.946
NCI-H2023 | 0.612
HCC-15 | 0.828
NCI-H1793 | 0.808
PC-14 | 0.939
EKVX | 1.09
LC-2-ad | 0.829
NCI-H1944 | 1.29
NCI-H1975 | 0.937
RERF-LC-KJ | 0.861
NCI-H358 | 0.719
NCI-H650 | 1.05
PC-3 [JPC-3] | 0.985

Same assay, conditions: first compound 0.8 µM

Cell Line | relative viability
NCI-H1755 | 0.984
NCI-H2023 | 0.712
HCC-15 | 0.788
NCI-H1793 | 0.859
PC-14 | 0.938
EKVX | 0.957
LC-2-ad | 0.774
NCI-H1944 | 1.27
NCI-H1975 | 0.93
RERF-LC-KJ | 0.871
NCI-H358 | 0.786
NCI-H650 | 0.799
PC-3 [JPC-3] | 0.96

Same assay, conditions: first compound 2.53 µM

Cell Line | relative viability
NCI-H1755 | 1.02
NCI-H2023 | 0.646
HCC-15 | 0.835
NCI-H1793 | 0.85
PC-14 | 0.95
EKVX | 0.988
LC-2-ad | 0.875
NCI-H1944 | 1.09
NCI-H1975 | 0.92
RERF-LC-KJ | 0.906
NCI-H358 | 0.713
PC-3 [JPC-3] | 0.969

Same assay, conditions: first compound 8 µM

Cell Line | relative viability
NCI-H1755 | 0.962
NCI-H2023 | 0.557
HCC-15 | 0.764
NCI-H1793 | 0.773
PC-14 | 0.862
EKVX | 1.01
LC-2-ad | 0.886
NCI-H1944 | 1.1
NCI-H1975 | 0.878
RERF-LC-KJ | 0.904
NCI-H358 | 0.649
NCI-H650 | 0.771
PC-3 [JPC-3] | 0.936
